According to patent US5593985A, “Cephalosporin compounds” (priority 1994, dated 1997):
≈ marks a conversion by molar mass, not a printed value. Where two headings read alike, the source gives them in different places.

Experiments:
Assay type in all cases: cell-based
[1] = test system: Streptococcus pyogenes A 308; assay: MIC, standard strain 1; details: read-out: Minimal Inhibitory Concentration(MIC)
Procedure: (§1) In order to illustrate antibiotic effectiveness of the compounds of the present invention, the minimal inhibitory concentrations (MIC's) of the representative compounds were determined against standard strains and compared with ceftazidime and cefpirome, which were used as control compounds.
(§2) The MIC values were taken by employing a two-fold dilution method: that is, two-fold serial dilutions of each of the test compounds were made from initial concentration of […]; each 1.5 ml of them was dispersed in 13.5 ml of Muller Hinton agar medium to adjust to […]; the standard test strain which had the concentration of 10^7 CFU/ml was inoculated by medium;and these were incubated at 37° C. for 18 hours.
(§3) The test used twenty kinds of standard test strains which induced urinary tract infections, respiratory organ infections, skin soft tissue infections, plasma infections, gastrointestinal infections, central nervous system infections, most of which produce β-lactamase. The standard test strains used are as follows:
1. Streptococcus pyogenes A 308

[2] = test system: Streptococcus pyogenes A 77; assay: MIC, standard strain 2; details: A77, S. pyogenes A 77, two-fold dilution, Muller Hinton agar, 10^7 CFU/ml, 37° C., 18 hours, read-out: Minimal Inhibitory Concentration(MIC)
Procedure: as §1, §2, §3
2. Streptococcus pyogenes A 77

Streptococcus faecium 8b = assay: MIC, standard strain 3; details: Enterococcus faecium, read-out: Minimal Inhibitory Concentration(MIC)
Procedure: as §1, §2, §3
3. Streptococcus faecium 8b

[3] = test system: Staphylococcus aureus SG 511; assay: MIC, standard strain 4; details: read-out: Minimal Inhibitory Concentration(MIC)
Procedure: as §1, §2, §3
4. Staphylococcus aureus SG 511

[4] = test system: Staphylococcus aureus 285; assay: MIC, standard strain 5; details: read-out: Minimal Inhibitory Concentration(MIC)
Procedure: as §1, §2, §3
5. Staphylococcus aureus 285

[5] = test system: Staphylococcus aureus 503; assay: MIC, standard strain 6; details: read-out: Minimal Inhibitory Concentration(MIC)
Procedure: as §1, §2, §3
6. Staphylococcus aureus 503

Escherichia coli 0 55 = assay: MIC, standard strain 7; details: 055, E. coli 0 55, two-fold dilution, Muller Hinton agar, 10^7 CFU/ml, 37° C., 18 hours, read-out: Minimal Inhibitory Concentration(MIC)
Procedure: as §1, §2
(§4) The test used twenty kinds of standard test strains which induced urinary tract infections, respiratory organ infections, skin soft tissue infections, plasma infections, gastrointestinal infections, central nervous system infections, most of which produce β-lactamase.

Escherichia coli DC 0 = assay: MIC, standard strain 8; details: DC0, E. coli DC 0, two-fold dilution, Muller Hinton agar, 10^7 CFU/ml, 37° C., 18 hours, read-out: Minimal Inhibitory Concentration(MIC)
Procedure: as §1, §2, §4

Escherichia coli DC 2 = assay: MIC, standard strain 9; details: DC2, E. coli DC 2, two-fold dilution, Muller Hinton agar, 10^7 CFU/ml, 37° C., 18 hours, read-out: Minimal Inhibitory Concentration(MIC)
Procedure: as §1, §2, §4

Escherichia coli TEM = assay: MIC, standard strain 10; details: 18 h, read-out: Minimal Inhibitory Concentration(MIC)
Procedure: as §1, §2, §4

Escherichia coli 1507 E = assay: MIC, standard strain 11; details: E. coli 1507 E, two-fold dilution, Muller Hinton agar, 10^7 CFU/ml, 37° C., 18 hours, read-out: Minimal Inhibitory Concentration(MIC)
Procedure: as §1, §2, §4

[6] = test system: Pseudomonas aeruginosa 9.027; assay: MIC, standard strain 12; details: Pseudomonas aeruginosa; P. aeruginosa 9.027; two-fold dilution, Muller Hinton agar, 10^7 CFU/ml, 37° C., 18 hours; read-out: Minimal Inhibitory Concentration(MIC)
Procedure: as §1, §2, §3
12. Pseudomonas aeruginosa 9.027

[7] = test system: Pseudomonas aeruginosa 1592 E; assay: MIC, standard strain 13; details: P. aeruginosa 1592 E, two-fold dilution, Muller Hinton agar, 10^7 CFU/ml, 37° C., 18 hours, read-out: Minimal Inhibitory Concentration(MIC)
Procedure: as §1, §2, §3
13. Pseudomonas aeruginosa 1592 E

[8] = test system: Pseudomonas aeruginosa 1771; assay: MIC, standard strain 14; details: Pseudomonas aeruginosa; P. aeruginosa 1771; two-fold dilution, Muller Hinton agar, 10^7 CFU/ml, 37° C., 18 hours; read-out: Minimal Inhibitory Concentration(MIC)
Procedure: as §1, §2, §3
14. Pseudomonas aeruginosa 1771

[9] = test system: Pseudomonas aeruginosa 1771M; assay: MIC, standard strain 15; details: 18 h, read-out: Minimal Inhibitory Concentration(MIC)
Procedure: as §1, §2, §3
15. Pseudomonas aeruginosa 1771M

Salmonella typhimurium = assay: MIC, standard strain 16; details: Salmonella enterica, read-out: Minimal Inhibitory Concentration(MIC)
Procedure: as §1, §2, §3
16. Salmonella typhimurium

[10] = test system: Klebsiella aerogenes 1552 E; assay: MIC, standard strain 18; details: K. aerogenes 1552 E, two-fold dilution, Muller Hinton agar, 10^7 CFU/ml, 37° C., 18 hours, read-out: Minimal Inhibitory Concentration(MIC)
Procedure: as §1, §2, §3
18. Klebsiella aerogenes 1552 E

[11] = test system: Enterobacter cloacae P 99; assay: MIC, standard strain 19; details: P99, 18 h, read-out: Minimal Inhibitory Concentration(MIC)
Procedure: as §1, §2, §3
19. Enterobacter cloacae P 99

[12] = test system: Enterobacter cloacae 1321 E; assay: MIC, standard strain 20; details: E. cloacae 1321 E, two-fold dilution, Muller Hinton agar, 10^7 CFU/ml, 37° C., 18 hours, read-out: Minimal Inhibitory Concentration(MIC)
Procedure: as §1, §2, §3
20. Enterobacter cloacae 1321 E

[13] = S. faecium 8b, two-fold dilution, Muller Hinton agar, 10^7 CFU/ml, 37° C., 18 hours
[14] = SG511, S. aureus SG 511, two-fold dilution, Muller Hinton agar, 10^7 CFU/ml, 37° C., 18 hours
[15] = Staphylococcus aureus, S. aureus 503, two-fold dilution, Muller Hinton agar, 10^7 CFU/ml, 37° C., 18 hours
[16] = S. typhimurium, two-fold dilution, Muller Hinton agar, 10^7 CFU/ml, 37° C., 18 hours
[17] = Staphylococcus aureus, S. aureus 285, two-fold dilution, Muller Hinton agar, 10^7 CFU/ml, 37° C., 18 hours

Structure (SMILES) | MIC ([1]; A308, 18 h) [µg/mL] | MIC [2] [µg/mL] | MIC (Streptococcus faecium 8b; [13]) [µg/mL] | MIC [3, 14] [µg/mL] | MIC [5, 15] [µg/mL] | MIC (Escherichia coli 0 55) [µg/mL] | MIC (Escherichia coli DC 0) [µg/mL] | MIC (Escherichia coli DC 2) [µg/mL] | MIC (Escherichia coli TEM) [µg/mL] | MIC (Escherichia coli 1507 E) [µg/mL] | MIC [6] [µg/mL] | MIC [7] [µg/mL] | MIC [8] [µg/mL] | MIC [9] [µg/mL] | MIC (Salmonella typhimurium; [16]) [µg/mL] | MIC [10] [µg/mL] | MIC [11] [µg/mL] | MIC [12] [µg/mL] | MIC [4, 17] [µg/mL] | also measured
CCOC(=O)c1cc[n+](CC2=C(C(=O)[O-])N3C(=O)[C@@H](NC(=O)/C(=N\OC)c4csc(N)n4)[C@H]3SC2)c2c1CCC2 [Example 1] | 7 (≈ 11.9 µM) | 7 (≈ 11.9 µM) | 25000 (≈ 42600 µM) | 1560 (≈ 2660 µM) | 781 (≈ 1330 µM) | 49 (≈ 83.5 µM) | 49 (≈ 83.5 µM) | 25 (≈ 42.6 µM) | 391 (≈ 666 µM) | 49 (≈ 83.5 µM) | 12500 (≈ 21300 µM) | 12500 (≈ 21300 µM) | 6250 (≈ 10700 µM) | 391 (≈ 666 µM) | 49 (≈ 83.5 µM) | 49 (≈ 83.5 µM) | 25000 (≈ 42600 µM) | 25 (≈ 42.6 µM) |  | MIC ([4]; Staphylococcus aureus, 285, 18 h): 3120 µg/mL (≈ 5330 µM)
CO/N=C(\C(=O)N[C@@H]1C(=O)N2C(C(=O)[O-])=C(C[n+]3ccc(-c4nc(C)cs4)c4c3CCC4)CS[C@H]12)c1csc(N)n1 [Example 25, 7-β-[(Z)-2-(2-aminothiazol-4-yl)-2-methoxyiminoacetamido]-3-[(2,3-cyclopenteno-4-(4-methylthiazol-2-yl)-1-pyridinium)methyl]-3-cephem-4-carboxylate] |  | 2 (≈ 3.27 µM) | 12500 (≈ 20400 µM) |  | 195 (≈ 319 µM) | 195 (≈ 319 µM) | 25 (≈ 40.9 µM) | 25 (≈ 40.9 µM) | 391 (≈ 639 µM) | 781 (≈ 1280 µM) | 100000 (≈ 163000 µM) | 50000 (≈ 81700 µM) | 50000 (≈ 81700 µM) | 1560 (≈ 2560 µM) |  | 781 (≈ 1280 µM) | 25000 (≈ 40900 µM) | 98 (≈ 160 µM) | 781 (≈ 1280 µM) | MIC ([1]; A308, S. pyogenes A 308, two-fold dilution, Muller Hinton agar, 10^7 CFU/ml, 37° C., 18 hours): 4 µg/mL (≈ 6.54 µM); MIC ([3]; SG511, 18 h): 391 µg/mL (≈ 639 µM); MIC (Salmonella typhimurium; TYPHIMURIUM, 18 h): 391 µg/mL (≈ 639 µM)
CO/N=C(\C(=O)N[C@@H]1C(=O)N2C(C(=O)[O-])=C(C[n+]3ccc(NC(C)=O)c4c3CCC4)CS[C@H]12)c1csc(N)n1 [Example 17, 7-β-[(Z)-2-(2-aminothiazol-4-yl)-2-methoxyiminoacetamido]-3-[(4-acetamido-2,3-cyclopenteno-1-pyridinium)methyl]-3-cephem-4-carboxylate] | < 2 | < 2 |  | 781 (≈ 1370 µM) |  | 25 (≈ 43.7 µM) | 13 (≈ 22.7 µM) | 13 (≈ 22.7 µM) | 25 (≈ 43.7 µM) | 25 (≈ 43.7 µM) | 12500 (≈ 21900 µM) | 6250 (≈ 10900 µM) | 6250 (≈ 10900 µM) | 1560 (≈ 2730 µM) | 49 (≈ 85.7 µM) | 13 (≈ 22.7 µM) | 12500 (≈ 21900 µM) | 13 (≈ 22.7 µM) | 1560 (≈ 2730 µM) | MIC (Streptococcus faecium 8b; 8B, 18 h): 100000 µg/mL (≈ 175000 µM); MIC ([5]; Staphylococcus aureus, 503, 18 h): 195 µg/mL (≈ 341 µM)
